Results on 51 molecules are retold here after PubChem BioAssay AID179 (DTP/NCI, 2004).

Calls of active or inactive are those of the source.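 The calls were made as follows: active = compounds giving half or more protection of infected cells from virus-caused growth loss, again on retest; inactive = the rest.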 Where a SMILES comes first, the peptide text is derived from it. The star is where a group is joined. OSu = O=C1CCC(=O)N1O*

For this test, the system named is CEM cells HIV-1 protection, formazan growth assay. Put plainly: NCI AIDS Antiviral Assay. The settings on record: for IC50: measured here: growth of uninfected CEM cells. The procedure, abridged:
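Soluble formazan readout of cell growth; CEM cells ± HIV-1; 5 drug concs. ≥50% protection → retest; ≥50% again = moderately active; reproducible 100% = confirmed active.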

The term EC50 denotes the concentration needed to bring the measured effect to its halfway point. A word on the IC50: it is the concentration needed to halve the response being measured. Turning to `NC(N)=NS(=O)(=O)c1ccc(NC(=O)c2ccc3nc4ccccc4c(Nc4ccc(S(N)(=O)=O)cc4)c3c2)cc1`, the EC50 was more than 200 µM and the IC50 worked out at 148 µM.

Take `O=c1ccc2cc(Cl)ccc2o1`: the EC50 was more than 75.9 µM and the IC50 is more than 75.9 µM.

In the case of `NCCCCC(NC(=O)C(N)Cc1ccc(O)cc1)C(=O)NC(CCCCN)C(=O)NC(CCCCN)C(=O)ON1C(=O)CCC1=O` (centres undefined) (H-YKKK-OSu; configuration not given here), the EC50 is 162 µM and the IC50 is more than 200 µM.

On to `CN(C)Cc1cc(N=Nc2c(Cl)cccc2Cl)ccc1O`, for which the EC50 was more than 200 µM and the IC50 came out at 83.2 µM.

`NC(=S)N=Nc1c(O)cc(Nc2ccc(Cl)cc2Cl)c2ccccc12`: the EC50 is more than 138 µM and the IC50 is 97.7 µM.

For the molecule `COC(C)(C)C1(O)CCC(C)CC1=O` (centres undefined), the EC50 is more than 100 µM and the IC50 was more than 100 µM.

As for `Cc1ccc2nn(-c3ccc(O)cc3)[n+]([O-])c2c1`, the EC50 is more than 200 µM and the IC50 is more than 200 µM.

Regarding `OC(c1ccccn1)c1c(Cl)cccc1Cl` (centres undefined), the EC50 was more than 200 µM and the IC50 is more than 200 µM.

For the molecule `O=C1c2ccccc2-n2nnnc2C2CSCN12` (centres undefined), the EC50 was more than 200 µM and the IC50 is more than 200 µM.

Turning to `Cc1ccc(C(=O)Nc2ccc(S(=O)(=O)O)c3cc(S(=O)(=O)O)cc(S(=O)(=O)O)c23)cc1NC(=O)c1cccc(NC(=S)Nc2cccc(C(=O)Nc3cc(C(=O)Nc4ccc(S(=O)(=O)O)c5cc(S(=O)(=O)O)cc(S(=O)(=O)O)c45)ccc3C)c2)c1`, the EC50 is 100 µM and the IC50 was 537 µM.

In the case of `N#CCCN(CCCN(C(=O)N(c1ccccc1)c1ccccc1)c1ccccc1)C(=O)Nc1ccccc1`, the EC50 was more than 200 µM and the IC50 is 10.5 µM.

As to `COC(=O)C(Cc1nc2ccc(Cl)cc2[nH]c1=O)/C(=N/O)C(=O)Nc1cccc(Cl)c1C` (centres undefined), the EC50 was more than 105 µM and the IC50 was more than 105 µM.

In the case of `Fc1ccccc1CN1COc2c(cc(Cl)c3cccnc23)C1`, the EC50 was more than 200 µM and the IC50 is 3.09 µM.

In the case of `C[N+]1(C)CC=C(N2CCOCC2)CC1`, the EC50 was more than 200 µM and the IC50 was more than 200 µM.

In the case of `N#Cc1cccc(C2ON=C(c3ccc([N+](=O)[O-])cc3)N2C23CC4CC(CC(C4)C2)C3)c1` (centres undefined), the EC50 is more than 200 µM and the IC50 was more than 200 µM.

In the case of `C=C(CCOC)CCC1CCCCC(=C)[C@H]1O` (some centres undefined), the EC50 is more than 200 µM and the IC50 is more than 200 µM.

Turning to `Cc1ccc(S(=O)(=O)n2c3c(c4ccccc42)CCN2C(=O)C(S(=O)(=O)c4ccccc4)=CCC32)cc1` (centres undefined), the EC50 was more than 200 µM and the IC50 stood at 0.589 µM.

With `CC(C)CNC(=O)Cn1c2c(c3ccccc31)CCCC2`, the EC50 was more than 200 µM and the IC50 was 81.3 µM.

Turning to `O=c1n(CC2CO2)c2ccccc2n1CC1CS1` (centres undefined), the EC50 is more than 692 µM and the IC50 was 12.9 µM.

For the molecule `CC(CCC/C=C/CCCN(C)C(=N)N)CC(C)C1OC(=O)C(C)C(O)/C=C/C(C)C(O)C(C)C(O)C(C)C(O)CCCC(O)CC2(O)OC(CC(OC(=O)CC(=O)O)CC(O)CC(O)C(C)C(O)/C=C/C=C/C1C)CC(O)C2O` (centres undefined), the outcome was inactive.

Regarding `OCC1=CCC2c3[nH]c4ccccc4c3CCN2C1` (centres undefined), the EC50 is more than 372 µM and the IC50 was more than 372 µM.

With `CC(C)(C)N=P(c1ccccc1)(c1ccccc1)c1ccccc1`, the EC50 is more than 200 µM and the IC50 worked out at 191 µM.

For the molecule `N#CC1(C#N)C=CC(=C2OCC3CCCN23)C=C1` (centres undefined), the result was inactive.

For `Cn1cnc2ccccc2c1=S`, the EC50 was more than 200 µM and the IC50 amounted to 182 µM.

Regarding `COc1cc2c3c(c1)[nH]c(=S)n3C(=O)C(C)S2` (centres undefined), the EC50 is more than 200 µM and the IC50 came to 141 µM.

Turning to `Fc1ccc(N=C/C=C/Nc2ccc(F)cc2)cc1`, the result was inactive.

`O=C1CN(C=C2C(=O)NC(=O)NC2=O)C(=S)N1`: the EC50 was more than 200 µM and the IC50 is more than 200 µM.

As for `CCCNCc1c2c(O)c3c(O)c(C)c4c(c3c1O)C(=O)C(C)(O/C=C/C(OC)C(C)C(OC(C)=O)C(C)C(O)C(C)C(O)C(C)/C=C/C=C(/C)C(=O)N2)O4` (centres undefined), the EC50 is more than 200 µM and the IC50 stood at 3.8 µM.

With `COc1ccc(NC(=O)/C(Cc2cc(=O)oc3cc(O)ccc23)=N\NC(C)(C)C)c(OC)c1`, the EC50 was more than 30.2 µM and the half-maximal inhibitory concentration (IC50) was more than 30.2 µM.

On to `Nc1ccc2n[se]nc2c1`, for which the outcome was inactive.

Turning to `COC(=O)/C(C#N)=C1\N=NNN1CCCN1CCOCC1`, the result was inactive.

With `Cc1cc(=O)n2c(nc3ccccc32)s1`, the EC50 was more than 200 µM and the IC50 was more than 200 µM.

Regarding `O=C1c2cccc3cc([N+](=O)[O-])cc(c23)C(=O)N1Cc1cccnc1`, the result was inactive.

Turning to `CC(=S)N/C=C(/c1ccc(Cl)cc1Cl)S(=O)(=O)Cc1ccc(Cl)cc1Cl`, the EC50 was more than 100 µM and the half-inhibitory concentration (IC50) is more than 100 µM.

Take `Cc1ccc2c(c1)C(=O)/C(=C\c1ccc(Cl)cc1)CCS2(=O)=O`: the EC50 was more than 200 µM and the 50% inhibitory concentration (IC50) stood at 1.66 µM.

With `Cn1cccc1/C=C/c1cc(Br)c(/C=C/c2cccn2C)cc1Br`, the outcome was inactive.

Turning to `Cc1cnc2cc(Cl)ccc2c1NCCN(CC(C)C)CC(C)C`, the EC50 is more than 1 µM and the IC50 was more than 1 µM.

Regarding `COc1ccccc1N=NC(C(=O)c1ccccc1)C(=O)c1ccccc1`, the EC50 was more than 52.5 µM and the IC50 was 0.513 µM.

For `CC(=O)N1N=C(N)CC1=O`, the EC50 is more than 200 µM and the IC50 is more than 200 µM.

As to `CCOC(=O)C(=[N+]=[N-])C(=O)C[N+]12CCN(CC1)CC2`, the EC50 is more than 200 µM and the IC50 was more than 200 µM.

Regarding `Cc1cc(S(=O)(=O)N2CCNNC2=O)c(S)cc1Cl`, the EC50 is 27.5 µM and the 50% inhibitory concentration (IC50) is 50.1 µM.

Turning to `O=S(=O)(O)c1cc(O)c2ccc3c(S(=O)(=O)O)cc(S(=O)(=O)O)c4ccc1c2c34`, the outcome was inactive.

For the molecule `O=C(C(=O)N1CCc2ccccc21)c1c[nH]c2ccccc12`, the EC50 was more than 200 µM and the IC50 was more than 200 µM.

Regarding `CC(C)(C)[Si](C)(C)OC[C@H]1O[C@@H](n2ccc(=O)[nH]c2=O)C(O[Si](C)(C)C(C)(C)C)[C@]12CCN(O)CO2` (some centres undefined), the EC50 was more than 200 µM and the IC50 was determined as 11.5 µM.

On to `CC(=O)N1CC[N+](C)(CCCCN2c3ccccc3Sc3cc(N=[N+]=[N-])ccc32)CC1`, for which the EC50 is more than 200 µM and the IC50 worked out at 81.3 µM.

In the case of `C=C1C2CC[C@H]3C4(C)CCCC(C)(C(=O)O)[C@H]4CCC3(C2)[C@@H]1OC(C)=O` (some centres undefined), the EC50 is more than 105 µM and the half-maximal inhibitory concentration (IC50) worked out at 77.6 µM.

On to `CC1=C(c2nc3ccccc3s2)C(=O)OC1(C)C`, for which the EC50 is more than 182 µM and the IC50 turned out to be 123 µM.

Regarding `Cc1ccc2[nH]c3c(c2c1)[n+]([O-])c1ccccc1[n+]3[O-]`, the EC50 is more than 200 µM and the IC50 was 38.9 µM.

Turning to `O[C@@H]1CO[C@H]2[C@@H]1OC[C@@H]2O`, the EC50 is more than 200 µM and the IC50 is more than 200 µM.

As for `CC1(C)CC2(C)CC1CC2O` (centres undefined), the EC50 is more than 200 µM and the IC50 was more than 200 µM.

As for `N.N.N.O=[N+]([O-])[O-].O=[N+]([O-])[O-].O=[N+]([O-])[O-].O=[N+]([O-])[O-].[Co+3]`, the EC50 is more than 692 µM and the IC50 came to 117 µM.
